Results published in patent US10253039B2, “Inhibitors of bacterial DNA gyrase with efficacy against gram-negative bacteria” (priority 2014, dated 2019).
Converted amounts (≈) assume the structure as drawn. Where two headings read alike, the source gives them in different places.

Columns and labels:
Format in all cases: cell-based
E. coli JW5503 (deltolC) = experiment: MIC, 20-strain panel; settings: Escherichia coli
How it was run: (§1)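 Inoculum 1:10000 (LB, log-phase subculture). Triplicate twofold dilutions plus DMSO column. 37° C., shaken, 16-18 h. Lowest non-turbid well = MIC. CLSI method.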

[1] = tested on: Klebsiella pneumoniae subsp. pneumoniae; experiment: MIC, 20-strain panel
How it was run: as §1

[2] = tested on: Salmonella enterica subsp. enterica typhimurium; experiment: MIC, 20-strain panel
How it was run: as §1

[3] = tested on: Staphylococcus epidermidis; experiment: MIC, 20-strain panel
How it was run: as §1

[4] = tested on: Staphylococcus saprophyticus subsp. saprophyticus; experiment: MIC, 20-strain panel
How it was run: as §1

Shigella flexneri = experiment: MIC, 20-strain panel
How it was run: as §1

Streptococcus pyogenes = experiment: MIC, 20-strain panel
How it was run: as §1

[5] = tested on: Staphylococcus aureus subsp. aureus; experiment: MIC, 20-strain panel; settings: read-out: MIC
How it was run: as §1

E. coli MG1655 = experiment: MIC, 20-strain panel; settings: Escherichia coli, read-out: MIC
How it was run: as §1

Streptococcus agalactiae = experiment: MIC, 20-strain panel
How it was run: as §1

Edwardsiella tarda = experiment: MIC, microdilution in 96-well plates
How it was run: as §1

E. coli BW25113 = experiment: MIC, microdilution in 96-well plates; settings: Escherichia coli, read-out: MIC
How it was run: as §1

[6] = E: Klebsiella pneumoniae subsp. pneumoniae
[7] = F: Salmonella enterica subsp. enterica Typhimurium
[8] = H: Staphylococcus aureus subsp. aureus

SMILES	MIC (E. coli JW5503 (deltolC); C: E. coli JW5503 (deltolC)) [µg/mL]	MIC [1, 6] [µg/mL]	MIC [2, 7] [µg/mL]	MIC [3] [µg/mL]	MIC [4] [µg/mL]	MIC (Shigella flexneri; G: Shigella flexneri) [µg/mL]	MIC (Streptococcus pyogenes) [µg/mL]	MIC [5, 8] [µg/mL]	MIC (E. coli MG1655; MG1655, A: E. coli MG1655) [µg/mL]	MIC (Streptococcus agalactiae) [µg/mL]	MIC (Edwardsiella tarda; D: Edwardsiella tarda) [µg/mL]	MIC (E. coli BW25113; BW25113, B: E. coli BW25113) [µg/mL]	MIC (E. coli JW5503 (deltolC); E. coli JW5503 (deltolC)) [µg/mL]	MIC ([1]; Klebsiella pneumoniae subsp. pneumoniae) [µg/mL]	MIC ([2]; Salmonella enterica subsp. enterica Typhimurium) [µg/mL]	MIC (Shigella flexneri) [µg/mL]	MIC ([5]; Staphylococcus aureus subsp. aureus) [µg/mL]	MIC (E. coli MG1655; MG1655, E. coli MG1655) [µg/mL]	MIC (Edwardsiella tarda) [µg/mL]	MIC (E. coli BW25113; BW25113, E. coli BW25113) [µg/mL]
N#Cc1cccc(S(=O)(=O)N[C@@H]2CCN(Cc3ccc(-c4ccccn4)cc3)C2)c1 [Compound 46]	1 (≈ 2.39 µM)	> 8	8 (≈ 19.1 µM)	> 8	> 8	> 8	> 8	> 8	> 8	> 8	> 8	> 8								
O=S(=O)(N[C@@H]1CCN(Cc2ccc(-c3ccc(Cl)cc3)cc2)C1)c1cccc(C(F)(F)F)c1 [Compound 102]	~8 (≈ 16.2 µM)	> 8	> 8	4 (≈ 8.08 µM)	> 8	> 8	~8 (≈ 16.2 µM)	8 (≈ 16.2 µM)	> 8	> 8	> 8	> 8								
O=S(=O)(N[C@@H]1CCN(Cc2ccc(OC(F)(F)F)cc2)C1)c1cccc(OC(F)(F)F)c1 [Compound 51]	4 (≈ 8.26 µM)	> 8	> 8	> 8	> 8	> 8	> 8	> 8	> 8	> 8	> 8	> 8								
O=S(=O)(N[C@@H]1CCN(Cc2ccn(-c3ccccc3)n2)C1)c1cccc(OC(F)(F)F)c1 [Compound 163]				> 8	> 8		> 8			> 8			> 8	> 8	> 8	> 8	> 8	> 8	> 8	> 8
N#Cc1cccc(S(=O)(=O)N[C@@H]2CCN(Cc3ccc(-c4cncnc4)cc3)C2)c1 [Compound 22]	8 (≈ 19.1 µM)	> 8	> 8	> 8	> 8	> 8	> 8	> 8	> 8	> 8	> 8	> 8								
O=S(=O)(N[C@@H]1CCN(Cc2ccc(OC3CCC3)cc2)C1)c1cccc(C(F)(F)F)c1 [Compound 5]	0.125 (≈ 0.275 µM)	> 8	8 (≈ 17.6 µM)	> 8	> 8	> 8	> 8	> 8	> 8	> 8	> 8	~8 (≈ 17.6 µM)								
Cc1ccc(S(C)(=O)=O)cc1S(=O)(=O)N[C@@H]1CCN(Cc2ccc(OC(C)C)cc2)C1 [Compound 72]	> 8	> 8	> 8	> 8	> 8	> 8	> 8	> 8	> 8	> 8	> 8	> 8								
Cc1nn(C)c2ncc(S(=O)(=O)N[C@@H]3CCN(Cc4ccc(-c5ccccc5)cc4)C3)cc12 [Compound 115]	> 8	> 8	> 8	> 8	> 8	> 8	> 8	> 8	> 8	> 8	> 8	> 8								
O=S(=O)(N[C@@H]1CCN(Cc2ccc(-c3ccccc3)cc2)C1)c1cc(S(=O)(=O)c2ccccc2)cs1 [Compound 37]	> 8	> 8	> 8	> 8	> 8	> 8	> 8	> 8	> 8	> 8	> 8	> 8								
CC(C)Oc1ccc(CN2CC[C@@H](NS(=O)(=O)c3cc(Cl)cc(C(F)(F)F)c3)C2)cc1 [Compound 92]	8 (≈ 16.8 µM)	> 8	> 8	> 8	> 8	> 8	> 8	> 8	> 8	> 8	> 8	> 8								
O=S(=O)(N[C@@H]1CCN(Cc2ccc(OC3CC3)cc2)C1)c1cccc2cccnc12 [Compound 96]	1 (≈ 2.36 µM)	> 8	~8 (≈ 18.9 µM)	> 8	> 8	> 8	> 8	> 8	> 8	> 8	> 8	> 8								
O=S(=O)(N[C@@H]1CCN(Cc2nc(-c3ccccc3)cs2)C1)c1cccc(OC(F)(F)F)c1 [Compound 107]	> 8	> 8	> 8	> 8	> 8	> 8	> 8	> 8	> 8	> 8	> 8	> 8								
COc1ccccc1-c1ccc(CN2CC[C@@H](NS(=O)(=O)c3cccc(C(F)(F)F)c3)C2)cc1 [Compound 66]	4 (≈ 8.15 µM)	> 8	> 8	8 (≈ 16.3 µM)	> 8	> 8	> 8	> 8	> 8	> 8	> 8	> 8								
N#Cc1cccc(S(=O)(=O)N[C@@H]2CCN(Cc3ccc(-c4ccccc4Cl)cc3)C2)c1 [Compound 70]	1 (≈ 2.21 µM)	> 8	> 8	8 (≈ 17.7 µM)	> 8	> 8	> 8	> 8	> 8	> 8	> 8	> 8								
N#Cc1cccc(S(=O)(=O)N[C@@H]2CCN(Cc3ccc(N4CCCC4=O)cc3)C2)c1 [Compound 97]	4 (≈ 9.42 µM)	> 8	> 8	> 8	> 8	> 8	> 8	> 8	> 8	> 8	> 8	> 8								
